Series [1] can be described thus: Test with ABTS (anti-oxidant capacity, hydroxyl radicals generated by Fenton's reaction). Type of series: biochemical. The settings on record: 30 minutes at ambient temperature, range 10 nM to 1 mM, read-out: IC50 ± SEM (concentration at which 50% of hydroxyl radicals have been reduced) (converted). From the text:
ABTS or 2,2′-azino-bis-(3-ethylbenzthiazoline-6-sulfonic) acid is a coloured indicator of the presence of hydroxyl radicals in solution. The attack of a hydroxyl radical on ABTS generates the formation of an ATBS^+. cation radical (Equation 1). This coloured entity makes the absorbance (Abs) of the solution equal to 450 nm. ABTS+HO. ? ABTS^+. +HO^− Equation 1
During the test, hydroxyl radicals are generated by Fenton's reaction in the presence of iron and hydrogen peroxide (Equation 2) H2O2+Fe^2+ ? HO. +HO^−+Fe^3+ Equation 2
When a radical trap or antioxidant is present in solution, competition with ABTS is set up for reduction of hydroxyl radicals, which reduces the absorbance (Abs) at 450 nm.
The percentage of hydroxyl radicals converted into hydroxyl ions (% conversion) by the compound of interest may be calculated using Formula 1: […]
The anti-oxidant capacity of a compound may then be expressed in the form of IC50 that reflects the concentration at which 50% of hydroxyl radicals have been reduced by the tested compound.
Thus, the compounds to be tested and Trolox® were solubilised in ethanol so as to obtain solutions at 1 mM. We used cascade dilutions to obtain a concentration range varying from 1 mM to 10 nM. 90 μL of a 1:1 water-ethanol mixture was then added onto an ELISA 96-well plate, followed by 15 μL of an aqueous solution of ABTS at 1 mM, 15 μL of an aqueous solution of Fe2SO4 at 0.5 mM, 15 μL of each compound to be tested at different concentrations, and then 15 μl of an aqueous solution of hydrogen peroxide at 100 mM. The mixtures thus obtained were stirred at ambient temperature sheltered from air for 30 minutes, and the value of the absorbance at […] was then measured. The capacity of each compound to reduce hydroxyl radicals is determined by the reduction in absorbance at 450 nm, the control solution being composed of pure ethanol. Therefore, the ABTS test was made in comparison with Trolox®. The same ranges from 10 nm to 1 mM of indoles 1a, 1c, 1g, 1i, 2a, 4c, 2g, 2h and 2i were tested.

Series [2] is described as follows: Study of the passage through the blood-brain barrier (HPLC-MS/MS of brain extracts). Format: in vivo, mice. The following applies: for average concentration of compound 2c in brain extracts: 5-day sub-chronic, ± SEM, n=8. As for the experimental part:
The purpose of this study is to use HPLC coupled with a mass spectrometer to verify the presence of molecule 2c according to the invention […] hydrochloride of molecule 2c (2c/HCl) by oral or intra-peritoneal (IP)pathway.
Animals: Male RjOrl: SWISS mice approximately 5 weeks old and weighing between 20 and 24 g on arrival (from the R Janvier Breeding Centre, France) are kept in the animal house at constant temperature (22±1° C.) and under controlled hygrometry (55±20%) with a 12 hours light/darkness cycle (8 h00-20 h00). The mice were allowed free access to food and drink during the acclimatisation and study period. All experiments took place in accordance with the conditions defined in decree No. 2001-464, May 29, 2001 dealing with experiments on animals.
Treatments: Two 5-day sub-chronic treatments were done (oral or intra-peritoneal pathway): • Treatment by Intra-Peritoneal Pathway (IP):
The solution of hydrochloride of 2c/HCl to be injected is prepared in the carrier (10% Tween20+20% DMSO+70% NaCl at 09% in water) at a concentration of 2.0 g/L. Three groups were formed: • (1) mice that received the carrier through the IP pathway, at 10 mL/kg (group N, n=4), • (2) mice treated with 2c/HCl by IP pathway, at 20 mg/kg and at 10 mL/kg (group R, n=6), and • (3) Control mice that received no treatment (n=2).
The treated mice R4, R5 and R6 and the carrier mice N1, N2, N3 and N4 received the following treatments:
The solution of hydrochloride of 2c to be administered is prepared in the carrier (0.5% Tween80+99.5% carboxy-methyl cellulose at 1%, in 0.9% NaCl in water) at a concentration of 15.0 g/L.
(2) mice treated with 2c/HCl by oral pathway at 150 mg/kg and at 10 mL/kg (Group B, n=6), and
All mice were treated twice per day for 4 days. On the 5th day, they received a final treatment and were euthanized between 3 h00 and 7 h30 after this last treatment, according to the following scheme:
Euthanasia: The mice are anaesthetised by the injection of 0.1 mL of a solution of sodium pentobarbital at 6% and an perfusion is then done on the mice so as to remove all traces of blood from the brain, with an 0.9% NaCl solution that contains heparin (200 μL of heparin choay at 5000 UI/mL in 1 liter of 0.9% NaCl). An perfusion with a minimum of 50 mL of this solution is done on each animal. The mouse brain is removed. The cerebellum, the brain stem and olfactory bulbs are eliminated.
The 3 parts of the brain are frozen in isopentane at −30° C. for one minute, and then kept separately at −80° C. […]
However, only parts 1 of the mice brains were extracted and analysed so as to keep samples for future analyses. […]
Instrumentation and conditions for analysis of compound 2c: Detection and quantification based on the area of the peaks are done using HPLC-MS/MS, in MRM mode. […]

SMILES strings stand for the structures.

Take `CCCCCCCCCCCCCCCCNCCc1c[nH]c2ccccc12` [Compound 2c, N-(2-(1H-indol-3-yl)ethyl)hexadecan-1-amine]: the IC50 in series [1] is 620 µM. Besides, the “average concentration of compound 2c in brain extracts” value turned out to be 14.73 ng/mL in series [2] (mice, IP, 2c/HCl 20 mg/kg) and 21.25 ng/mL in series [2] (mice, per os, 2c/HCl 150 mg/kg twice per day (300 mg/kg/d)). Further, in series [2] (mice, after IP and after per os administration of 2c/HCl), the “crossing of the BBB in vivo” value is “capable of crossing the BBB in vivo”. In series [2] (per os 300 mg/kg/d vs IP 20 mg/kg/d), the “brain concentration after per os treatment relative to IP treatment” value was “about 1.5 times”.

(Values after US8614246B2, “Indole derivatives for treating neurodegenerative diseases” (Centre National de la Recherche Scientifique (CNRS), priority 2009, dated 2013).)
